system: Caco-2 cells; experiment: in vitro; conditions: Ko-143 10 μM on apical and basolateral sides; sulfasalazine 500 μM
Description: Caco-2 cells were cultured on 12-well Transwell polycarbonate membrane inserts with a 0.4 μm pore size (Corning Incorporated, Kennebunk, ME) at 37 °C and 5% CO2 for 21–24 days prior to the experiment as described in Hubatsch et al. The culture medium (DMEM, 10% FBS, 1% MEM nonessential amino acids, 100 U/mL penicillin–streptomycin) was changed every second day. Transepithelial electrical resistance (TEER) was measured before and after the permeability assay with a Millicell-ERS electrode (Millipore, Bedford, MA) attached to an epithelial volt ohm meter (EVOM, World Precision Instruments, Sarasota, FL). The permeability assay was performed according to a previously published protocol. […] Sulfasalazine is a substrate of BCRP and OATP2B1. , The DMSO concentration was 0.45–1.5%. Before the experiment, inserts were washed and preincubated in the transport buffer for 20 min shaking at 37 °C. Sulfasalazine and LY permeability was measured in the apical to basolateral direction at five time points (20, 40, 60, 90, and 120 min) and, additionally, in the basolateral to apical direction to calculate the efflux ratio. […] […] LY (250 μM) was added on the donor side of all inserts to measure the integrity of the cell monolayer. Before analysis, samples were centrifuged at 2755g for 30 min, and donor solution and mass balance samples were diluted 1:100. LY fluorescence was measured with a Varioskan LUX microplate reader (Thermo Fisher Scientific) at 430 nm excitation and 538 nm emission. Sulfasalazine was analyzed with ultra-performance liquid chromatography (UPLC) using a Syncronis C18 column (1.7 μm particle size, 50 × 2.1 mm + 0.2 μm Waters online filter) (Thermo Fisher Scientific) coupled with Waters Acquity UPLC interfaced with a PDA detector both controlled by the Waters Empower software version 3. The UPLC was operated in gradient mode at 354 nm. Solvents were 0.015 M phosphate buffer pH 2 (A), acetonitrile (B), 1:1 acetonitrile/methanol (strong needle wash), and 20% acetonitrile (weak needle wash). Column temperature was 30 °C, injection volume was 10 μL, retention time was 1.46 min, and flow rate was 0.5 mL/min. The gradient was 25% B → 70% B (0–3 min), 70% B → 25% B (3.00–3.01 min), and 25% B (3.01–4 min). The data were collected for the first 180 s of each UPLC run.
In the Caco-2 permeability assay, the apparent permeability (P app) of sulfasalazine was calculated using the following equation: Papp=(dQ/dt)(1/A×C0) where dQ/dt is the rate of permeation across the cells (nmol/min), A is the surface area of the filter (1.12 cm^2), and C 0 is the initial concentration in the donor chamber (μM). The efflux ratio of sulfasalazine was calculated by dividing the P app in the basolateral to the apical direction by the P app in the apical to basolateral direction. The TEER for each cell insert was calculated before and after the experiment by multiplying the mean resistance of three measurements by the surface area of the filter (1.12 cm^2). Mass balance was calculated by dividing the […]. All experiments were done in triplicate wells, and the IC50 and Caco-2 permeability assays were repeated three times.

| SMILES | apical to basolateral P app of sulfasalazine with control inhibitor |
| --- | --- |
| COc1ccc2c3c([nH]c2c1)[C@H](CC(C)C)N1C(=O)[C@H](CCC(=O)OC(C)(C)C)NC(=O)[C@@H]1C3 [Ko-143, reference compound] | ~0.6 × 10^–6 cm/s |

same assay, conditions: food additive 200 μM on both sides of the cell monolayer

| SMILES | sulfasalazine P app fold change |
| --- | --- |
| O=C([O-])C1=NN(c2ccc(S(=O)(=O)[O-])cc2)C(=O)C1N=Nc1ccc(S(=O)(=O)[O-])cc1.[Na+].[Na+].[Na+] (stereo not shown) [tartrazine] | ≤ 2 |

biological target: P-gp (Homo sapiens, UniProt P08183); experiment: Vesicular transport assay, P-gp (N-methyl-quinidine substrate); conditions: food additive 50 μM; N-methyl-quinidine 2 μM; n = 1
Sequence (P08183 whole entry): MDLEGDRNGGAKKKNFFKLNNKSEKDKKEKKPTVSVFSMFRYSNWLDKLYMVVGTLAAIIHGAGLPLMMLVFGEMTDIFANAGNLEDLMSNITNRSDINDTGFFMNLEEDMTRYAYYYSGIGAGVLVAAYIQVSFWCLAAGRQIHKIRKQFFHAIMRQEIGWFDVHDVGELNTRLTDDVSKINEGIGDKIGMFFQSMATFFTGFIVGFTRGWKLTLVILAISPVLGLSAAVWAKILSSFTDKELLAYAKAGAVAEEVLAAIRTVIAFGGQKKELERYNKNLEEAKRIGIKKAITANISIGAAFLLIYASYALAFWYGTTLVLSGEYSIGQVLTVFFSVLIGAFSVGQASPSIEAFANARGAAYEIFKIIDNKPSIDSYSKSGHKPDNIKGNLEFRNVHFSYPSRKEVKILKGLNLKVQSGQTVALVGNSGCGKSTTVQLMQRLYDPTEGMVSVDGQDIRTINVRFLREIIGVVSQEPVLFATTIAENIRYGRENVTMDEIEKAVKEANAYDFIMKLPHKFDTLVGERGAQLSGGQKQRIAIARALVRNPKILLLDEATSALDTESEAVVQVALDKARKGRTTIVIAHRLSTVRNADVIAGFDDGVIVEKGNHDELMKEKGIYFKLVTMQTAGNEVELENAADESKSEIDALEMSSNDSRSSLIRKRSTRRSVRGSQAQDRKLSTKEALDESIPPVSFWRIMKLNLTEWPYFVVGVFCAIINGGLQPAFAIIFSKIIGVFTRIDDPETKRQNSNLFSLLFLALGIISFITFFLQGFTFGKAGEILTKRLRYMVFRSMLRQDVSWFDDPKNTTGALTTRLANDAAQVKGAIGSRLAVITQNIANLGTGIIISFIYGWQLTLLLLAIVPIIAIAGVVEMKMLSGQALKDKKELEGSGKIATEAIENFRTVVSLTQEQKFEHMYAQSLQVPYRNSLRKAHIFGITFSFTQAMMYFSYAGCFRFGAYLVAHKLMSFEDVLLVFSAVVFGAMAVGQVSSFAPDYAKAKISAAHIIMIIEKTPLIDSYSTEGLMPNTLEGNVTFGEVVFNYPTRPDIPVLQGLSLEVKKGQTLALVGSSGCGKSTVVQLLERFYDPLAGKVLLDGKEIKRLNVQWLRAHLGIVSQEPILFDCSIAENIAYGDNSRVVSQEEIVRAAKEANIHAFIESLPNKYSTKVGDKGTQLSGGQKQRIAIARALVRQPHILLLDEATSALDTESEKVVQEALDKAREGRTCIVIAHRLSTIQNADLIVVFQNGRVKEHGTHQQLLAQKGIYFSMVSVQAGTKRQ
Description: Transport inhibition by 22 food additives was tested with Spodoptera frugiperda (Sf9) derived crude membrane vesicles expressing BCRP, MRP2, or P-gp produced in-house. […] Vesicles (50 μg total protein/well) were diluted in an assay buffer (40 mM MOPS–Tris pH 7.0, 60 mM KCl, and 6 mM MgCl2) with the substrate, and food additives (final concentration of 50 μM) in DMSO were added to the mixture. After preincubation, either the assay buffer or Mg-ATP solution (final concentration 4 mM) was added to the plate to start the reaction. The plate was incubated at 37 °C, and the reaction was stopped with an ice-cold washing mixture (40 mM MOPS-Tris pH 7.0 and 70 mM KCl). Samples were moved to a MultiScreenHTS-FB Plate Glass fiber 1.0 μm/0.65 μm Durapore filter plate (Millipore, USA), and the wells were washed five times with the ice-cold washing mixture. For BCRP and MRP2, the fluorescent substrate was eluted from the filters with 100 μL 0.1 M NaOH. For LY samples, an equal volume of 0.1 M HCl was added to neutralize the samples before fluorescence measurement. The amount of the substrate accumulated into the vesicles was measured by fluorescent detection using a Varioskan LUX microplate reader (Thermo Fisher Scientific, Finland) (Table ). The accumulation into the P-gp vesicles was measured with high-performance liquid chromatography (HPLC) (Agilent 110 series, Agilent Technologies, USA) after lysis and elution of the vesicle contents with 100 μL 3:1 methanol/water + 0.1% formic acid. The column used was a Poroshell 120 EC-C18 with a size of 4.6 × 100 mm and 2.7 μm particle size. Eluent A was 0.1% formic acid, and eluent B was acetonitrile. The flow rate of eluent was 1 mL/min, and the injection volume of samples was 10 μL. […] The retention time for NMQ was around 2.5 min.
For the efflux transporters, the relative transport was calculated as relativetransport(%ofcontrol)=transportinh,ATP−transportinh,noATP/transportDMSO,ATP−transportDMSO,noATP×100% where transportinh,ATP and transportinh,no ATP are the transport rates in the presence of food additives with or without ATP, respectively, and transportDMSO,ATP and transportDMSO,no ATP are the corresponding transport rates in the presence of the vehicle (DMSO) with or without ATP.
The half-maximal inhibitory concentrations (IC50) were calculated with GraphPad Prism version 9.0.2 (GraphPad Software, San Diego, CA) using nonlinear regression that fits the data to a four-parameter dose–response curve: relativetransport=minimum+maximum−minimum/1+([I]/IC50)^h where minimum and maximum describe the plateaus of minimal and maximal relative transport (%), [I] is the concentration of inhibitor, and h is the Hill slope, which describes the steepness of the slope.

| SMILES | inhibition of P-gp substrate accumulation |
| --- | --- |
| O=C1O[C@H]([C@@H](O)CO)C(O)=C1O [ascorbic acid] | None |
| OC[C@@H](O)[C@@H](O)CO [erythritol] | None |
| OC[C@@H](O)[C@@H](O[C@H]1O[C@H](CO)[C@@H](O)[C@H](O)[C@H]1O)[C@H](O)[C@@H](O)CO [maltitol] | None |
| OC[C@@H](O)[C@@H](O)[C@H](O)[C@H](O)CO [mannitol] | None |
| OC[C@@H](O)[C@H](O)[C@@H](O)CO [xylitol] | None |

The remaining lines, values ahead:

| inhibition of P-gp substrate accumulation | SMILES |
| --- | --- |
| None | OC[C@@H](O)[C@@H](O[C@@H]1O[C@H](CO)[C@H](O)[C@H](O)[C@H]1O)[C@H](O)[C@@H](O)CO [lactitol] |
| None | CCCOC(=O)c1cc(O)c(O)c(O)c1 [propyl gallate] |
| None | OC[C@@H](O)[C@@H](O)[C@H](O)[C@@H](O)CO [sorbitol] |

— publication PMC12406256, “Food Additives Inhibit Intestinal Drug Transporters but Have Limited Effect on In Vitro Drug Permeability” (Molecular Pharmaceutics, 2025)
